{"source": "patent US20020016372A1", "about": "“Method for preventing and treating alzheimer's disease and brain damage associated with cardiov ascular disease and head injury” (priority 2000, published 2002)", "origin": "cited, not measured here", "key": {"brain sulfotransferase": {"tested_on": "brain sulfotransferase", "conditions": "mice; for brain sulfotransferase activity: in vivo"}, "[1]": {"tested_on": "protein tyrosine phosphorylation in the brain", "conditions": "chick embryo"}, "[2]": {"conditions": "rat, dietary supplementation"}, "NGF": {"tested_on": "NGF", "conditions": "aged rodents"}, "Human Lymphocytes": {"tested_on": "Human Lymphocytes", "conditions": "comet assay"}, "[3]": {"tested_on": "Caco-2 Colon Carcinoma Cells", "conditions": "oxidant effect"}}, "note": "“Also recorded” adds a separate entry of the source. Read-outs that look alike come from different tables or passages of the source."}
{"compound": "CC(=O)CC(c1ccccc1)c1c(O)c2ccccc2oc1=O", "note": "(stereo not drawn) [warfarin]", "values": [{"measurement": "incorporation of labeled sulfate into brain sulfatides", "setting": "brain sulfotransferase", "value": "decrease"}, {"measurement": "brain sulfotransferase activity", "setting": "brain sulfotransferase", "value": "decrease"}, {"measurement": "protein tyrosine phosphorylation in the brain", "setting": "[1]", "value": "decreases"}]}
{"compound": "CC1=C(C/C=C(\\C)CCC[C@H](C)CCC[C@H](C)CCCC(C)C)C(=O)c2ccccc2C1=O", "note": "[phylloquinone, Phylloquinone]", "values": [{"measurement": "brain sulfotransferase activity", "setting": "brain sulfotransferase", "value": "increased"}, {"measurement": "concentration of menaquinone-4 in the brain", "setting": "[2]", "value": "increased; also recorded: augments"}]}
{"compound": "COC1=C(OC)C(=O)C(CCCCCCCCCCO)=C(C)C1=O", "note": "[Idebenone]", "values": [{"measurement": "NGF levels in the brains", "setting": "NGF", "value": "increases"}, {"measurement": "activity in AD patients", "setting": "European trials", "value": "appeared to have some activity"}, {"measurement": "activity in AD patients", "setting": "U.S. trial (abandoned)", "value": "no activity was found"}]}
{"compound": "vitamin K", "values": [{"measurement": "protein tyrosine phosphorylation in the brain", "setting": "[1]", "value": "increases"}]}
{"compound": "CC1=CC(=O)c2ccccc2C1=O", "note": "[menadione, 2-methylnaphthoquinone]", "values": [{"measurement": "DNA damage", "setting": "Human Lymphocytes", "value": "can induce DNA damage"}, {"measurement": "calcium-mediated signaling", "setting": "[3]", "value": "perturb"}, {"measurement": "thiol-containing compounds in cells", "setting": "[3]", "value": "can deplete"}]}
